In article PMC2861344 (Neuropharmacology, 2010):
Blank lines part the entries; values can stand above or below the compound they belong to.

Tests used:
[1] = test system: NMDA receptor (native, hippocampal neurons); assay type: cell-based, Mus musculus
[2] = target: T1, NR1aNR2B NMDA receptor (NR2B subunit) (Rattus norvegicus, UniProt P35439+Q00960); assay: whole-cell patch clamp, agonist concentration-response; assay type: cell-based
[3] = target: T2, NR1aNR2A NMDA receptor (NR2A subunit) (Rattus norvegicus, UniProt P35439+Q00959); assay: as above; assay type: cell-based
[4] = target: T1, NR1aNR2B NMDA receptor (NR2B subunit); assay: whole-cell patch clamp, inhibition of EC30 NMDA current; assay type: cell-based; conditions: read-out: % inhibition at 100 μM
[5] = target: T2, NR1aNR2A NMDA receptor (NR2A subunit); assay: as above; assay type: cell-based; conditions: read-out: % inhibition at 100 μM

T2 sequence (Q00959 23-1464, other chains not shown): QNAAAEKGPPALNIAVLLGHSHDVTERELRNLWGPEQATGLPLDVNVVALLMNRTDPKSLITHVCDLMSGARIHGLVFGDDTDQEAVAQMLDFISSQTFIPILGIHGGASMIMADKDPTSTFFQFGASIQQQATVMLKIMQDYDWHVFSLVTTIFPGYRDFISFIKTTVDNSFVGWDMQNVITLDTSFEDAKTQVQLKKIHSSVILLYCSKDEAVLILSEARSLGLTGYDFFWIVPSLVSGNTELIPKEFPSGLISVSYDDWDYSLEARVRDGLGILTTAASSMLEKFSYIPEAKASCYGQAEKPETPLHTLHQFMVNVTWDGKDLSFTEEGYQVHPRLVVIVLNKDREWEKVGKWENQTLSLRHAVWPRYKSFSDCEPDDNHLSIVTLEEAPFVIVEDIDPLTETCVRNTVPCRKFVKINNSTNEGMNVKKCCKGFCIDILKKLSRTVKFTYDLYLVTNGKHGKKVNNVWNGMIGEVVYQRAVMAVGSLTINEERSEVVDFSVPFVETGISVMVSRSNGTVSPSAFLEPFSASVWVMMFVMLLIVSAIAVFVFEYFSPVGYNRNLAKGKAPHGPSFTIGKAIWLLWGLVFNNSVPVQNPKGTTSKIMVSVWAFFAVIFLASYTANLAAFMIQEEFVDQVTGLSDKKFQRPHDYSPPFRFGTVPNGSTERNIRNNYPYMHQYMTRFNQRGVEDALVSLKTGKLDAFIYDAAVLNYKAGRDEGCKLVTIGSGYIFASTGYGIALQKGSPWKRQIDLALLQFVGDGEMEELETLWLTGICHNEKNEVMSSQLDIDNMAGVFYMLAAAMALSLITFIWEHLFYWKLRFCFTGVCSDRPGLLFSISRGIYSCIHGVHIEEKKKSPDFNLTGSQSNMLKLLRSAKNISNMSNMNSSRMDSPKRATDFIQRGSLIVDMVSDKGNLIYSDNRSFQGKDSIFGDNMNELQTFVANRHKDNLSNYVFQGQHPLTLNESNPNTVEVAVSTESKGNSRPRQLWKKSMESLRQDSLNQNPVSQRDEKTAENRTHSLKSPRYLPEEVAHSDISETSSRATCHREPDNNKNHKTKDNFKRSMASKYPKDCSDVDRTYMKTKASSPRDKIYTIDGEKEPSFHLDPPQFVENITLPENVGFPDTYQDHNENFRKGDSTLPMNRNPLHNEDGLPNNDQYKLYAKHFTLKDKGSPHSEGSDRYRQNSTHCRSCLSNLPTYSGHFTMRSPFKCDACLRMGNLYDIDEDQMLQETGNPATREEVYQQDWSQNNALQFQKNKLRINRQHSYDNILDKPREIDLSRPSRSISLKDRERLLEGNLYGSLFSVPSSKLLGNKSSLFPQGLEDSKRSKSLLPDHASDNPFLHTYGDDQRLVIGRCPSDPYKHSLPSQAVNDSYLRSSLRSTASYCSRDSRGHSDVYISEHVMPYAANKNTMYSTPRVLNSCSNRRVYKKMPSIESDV
T1 sequence (Q00960 27-1482, other chains not shown): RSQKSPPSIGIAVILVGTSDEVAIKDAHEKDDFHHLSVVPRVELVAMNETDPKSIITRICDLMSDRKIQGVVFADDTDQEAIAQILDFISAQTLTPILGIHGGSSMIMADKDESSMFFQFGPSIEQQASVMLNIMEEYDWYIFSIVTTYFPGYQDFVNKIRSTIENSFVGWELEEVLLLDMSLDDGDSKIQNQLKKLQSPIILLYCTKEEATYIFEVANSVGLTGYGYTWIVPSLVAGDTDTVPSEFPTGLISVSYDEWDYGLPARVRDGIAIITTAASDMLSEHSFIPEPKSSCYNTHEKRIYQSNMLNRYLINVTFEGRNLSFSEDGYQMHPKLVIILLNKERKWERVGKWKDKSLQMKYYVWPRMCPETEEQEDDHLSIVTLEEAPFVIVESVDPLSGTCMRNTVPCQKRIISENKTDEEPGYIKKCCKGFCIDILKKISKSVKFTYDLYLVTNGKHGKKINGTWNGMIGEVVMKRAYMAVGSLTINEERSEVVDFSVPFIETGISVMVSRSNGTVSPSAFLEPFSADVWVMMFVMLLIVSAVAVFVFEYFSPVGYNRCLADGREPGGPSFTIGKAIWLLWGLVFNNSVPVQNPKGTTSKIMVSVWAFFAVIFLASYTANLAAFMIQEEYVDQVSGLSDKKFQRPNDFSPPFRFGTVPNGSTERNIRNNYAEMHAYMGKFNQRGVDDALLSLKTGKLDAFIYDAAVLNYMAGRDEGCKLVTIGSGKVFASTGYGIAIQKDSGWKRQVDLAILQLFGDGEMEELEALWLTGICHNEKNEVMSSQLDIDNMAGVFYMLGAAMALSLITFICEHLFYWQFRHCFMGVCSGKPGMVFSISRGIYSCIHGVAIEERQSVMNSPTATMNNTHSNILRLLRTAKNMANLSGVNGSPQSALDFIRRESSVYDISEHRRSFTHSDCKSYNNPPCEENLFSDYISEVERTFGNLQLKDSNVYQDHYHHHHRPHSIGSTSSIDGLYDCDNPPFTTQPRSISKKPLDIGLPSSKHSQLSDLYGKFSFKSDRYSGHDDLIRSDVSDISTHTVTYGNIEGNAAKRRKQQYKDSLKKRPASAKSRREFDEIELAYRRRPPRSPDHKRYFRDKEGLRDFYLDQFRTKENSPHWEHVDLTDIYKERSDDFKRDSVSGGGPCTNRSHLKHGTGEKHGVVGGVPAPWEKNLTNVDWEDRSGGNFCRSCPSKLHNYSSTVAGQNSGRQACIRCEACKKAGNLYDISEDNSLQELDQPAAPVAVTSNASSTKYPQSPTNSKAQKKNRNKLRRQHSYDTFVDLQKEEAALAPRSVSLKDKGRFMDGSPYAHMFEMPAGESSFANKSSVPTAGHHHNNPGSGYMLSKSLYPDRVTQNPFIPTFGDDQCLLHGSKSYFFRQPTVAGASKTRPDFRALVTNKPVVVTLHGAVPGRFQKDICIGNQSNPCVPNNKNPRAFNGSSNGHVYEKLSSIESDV

SMILES: O=c1c(-c2ccc(O)cc2)coc2cc(O)ccc12 [daidzein, 4′,7-dihydroxyisoflavone]
% of control current at 100 μM [1]: 68 ± 1.6

SMILES: CN[C@H](CC(=O)O)C(=O)O [NMDA]
EC50 [2]: 14 ± 1.3 µM
EC50 [3]: 44 ± 5.6 µM

inhibition at 100 µM [4]: 26 ± 2%
inhibition at 100 µM [5]: 20 ± 1.4%
SMILES: O=c1c(-c2ccc(O)cc2)coc2cc(O)cc(O)c12 [genistein]
